Data taken from PubChem BioAssay (NCI).
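Briefly, cells in 96-well plates were exposed to five compound concentrations for 48 h, and endpoints were estimated by linear interpolation. The concentration for full growth arrest is given as TGI.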

Legend:
Test in all cases: growth of human tumour cells (NCI), 48 h
A549 NSCLC = tested on: A549 NSCLC
ACHN renal = tested on: ACHN renal
BT-549 breast = tested on: BT-549 breast
CAKI-1 renal = tested on: CAKI-1 renal
CCRF-CEM leukemia = tested on: CCRF-CEM leukemia
COLO 205 colon = tested on: COLO 205 colon
DU-145 prostate = tested on: DU-145 prostate
EKVX NSCLC = tested on: EKVX NSCLC
HCC-2998 colon = tested on: HCC-2998 colon
HCT-15 colon = tested on: HCT-15 colon
HL-60(TB) leukemia = tested on: HL-60(TB) leukemia
HOP-62 NSCLC = tested on: HOP-62 NSCLC
HS 578T breast = tested on: HS 578T breast
IGROV1 ovarian = tested on: IGROV1 ovarian
LOX IMVI melanoma = tested on: LOX IMVI melanoma
M14 melanoma = tested on: M14 melanoma
MALME-3M melanoma = tested on: MALME-3M melanoma
MDA-MB-231 breast = tested on: MDA-MB-231 breast
MOLT-4 leukemia = tested on: MOLT-4 leukemia
NCI-H23 lung = tested on: NCI-H23 lung
NCI-H460 lung = tested on: NCI-H460 lung
NCI-H522 lung = tested on: NCI-H522 lung
NCI/ADR-RES ovarian = tested on: NCI/ADR-RES ovarian
OVCAR-4 ovarian = tested on: OVCAR-4 ovarian
OVCAR-5 ovarian = tested on: OVCAR-5 ovarian
OVCAR-8 ovarian = tested on: OVCAR-8 ovarian
RPMI-8226 leukemia = tested on: RPMI-8226 leukemia
RXF 393 renal = tested on: RXF 393 renal
SF-295 CNS = tested on: SF-295 CNS
SK-MEL-28 melanoma = tested on: SK-MEL-28 melanoma
SK-MEL-5 melanoma = tested on: SK-MEL-5 melanoma
SK-OV-3 ovarian = tested on: SK-OV-3 ovarian
SNB-75 CNS = tested on: SNB-75 CNS
SW-620 colon = tested on: SW-620 colon
TK-10 renal = tested on: TK-10 renal
UO-31 renal = tested on: UO-31 renal
786-0 renal = tested on: 786-0 renal
HCT-116 colon = tested on: HCT-116 colon
HOP-92 NSCLC = tested on: HOP-92 NSCLC
HT29 colon = tested on: HT29 colon
K-562 leukemia = tested on: K-562 leukemia
KM12 colon = tested on: KM12 colon
MCF7 breast = tested on: MCF7 breast
MDA-MB-435 = tested on: MDA-MB-435
PC-3 prostate = tested on: PC-3 prostate
SF-268 CNS = tested on: SF-268 CNS
SF-539 CNS = tested on: SF-539 CNS
SK-MEL-2 melanoma = tested on: SK-MEL-2 melanoma
SN12C renal = tested on: SN12C renal
SNB-19 CNS = tested on: SNB-19 CNS
SR leukemia = tested on: SR leukemia
U251 CNS = tested on: U251 CNS
UACC-257 melanoma = tested on: UACC-257 melanoma

Measured: TGI

Cc1cn(S(=O)(=O)c2ccccc2)c2c(OCc3ccccc3)cc(NC(=O)c3cc4cc([N+](=O)[O-])ccc4s3)cc12
> 100 µM: A549 NSCLC | ACHN renal | BT-549 breast | CAKI-1 renal | CCRF-CEM leukemia | COLO 205 colon | DU-145 prostate | EKVX NSCLC | HCC-2998 colon | HCT-15 colon | HL-60(TB) leukemia | HOP-62 NSCLC | HS 578T breast | IGROV1 ovarian | LOX IMVI melanoma | M14 melanoma | MALME-3M melanoma | MDA-MB-231 breast | MOLT-4 leukemia | NCI-H23 lung | NCI-H460 lung | NCI-H522 lung | NCI/ADR-RES ovarian | OVCAR-4 ovarian | OVCAR-5 ovarian | OVCAR-8 ovarian | RPMI-8226 leukemia | RXF 393 renal | SF-295 CNS | SK-MEL-28 melanoma | SK-MEL-5 melanoma | SK-OV-3 ovarian | SNB-75 CNS | SW-620 colon | TK-10 renal | UO-31 renal

C=CN(C=C)C(=O)Cn1cc(-c2ccccc2)nn1
> 100 µM: 786-0 renal | A549 NSCLC | ACHN renal | BT-549 breast | CAKI-1 renal | CCRF-CEM leukemia | COLO 205 colon | DU-145 prostate | EKVX NSCLC | HCC-2998 colon | HCT-116 colon | HCT-15 colon | HL-60(TB) leukemia | HOP-62 NSCLC | HOP-92 NSCLC | HT29 colon | IGROV1 ovarian | K-562 leukemia | KM12 colon | LOX IMVI melanoma | M14 melanoma | MALME-3M melanoma | MCF7 breast | MDA-MB-231 breast | MDA-MB-435 | MOLT-4 leukemia | NCI-H23 lung | NCI-H460 lung | NCI-H522 lung | NCI/ADR-RES ovarian | OVCAR-4 ovarian | OVCAR-5 ovarian | OVCAR-8 ovarian | PC-3 prostate | RPMI-8226 leukemia | SF-268 CNS | SF-295 CNS | SF-539 CNS | SK-MEL-2 melanoma | SK-MEL-28 melanoma | SK-MEL-5 melanoma | SN12C renal | SNB-19 CNS | SNB-75 CNS | SR leukemia | SW-620 colon | TK-10 renal | U251 CNS | UACC-257 melanoma
